Assay results from patent publication US20210252159A1, “CONJUGATES OF CARTILAGE-HOMING PEPTIDES” (priority 2018, published 2021).
Read-outs that look alike come from different tables or passages of the source.

Key:
CIA rats [1] = tested on: CIA rats
Procedure: Arthritis was induced in 9-week-old female Lewis rats (Envigo or Charles River Laboratories) by intradermal injection while anesthetized of 400 ug bovine type II collagen (Chondrex Inc, Redmond Wash.) in 2 adjacent 200 ul (1 mg/ml) doses on day 0. Collagen is prepared for injection by dissolving at 2 mg/ml in 0.01N glacial acetic acid in sterile water and rocking at 4° C. overnight then emulsifying in Freund's incomplete adjuvant (IFA, Sigma Aldrich). To emulsify, equal volumes of collagen solution and IFA are drawn up into separate syringes, which are joined by a 3-way stopcock. While on ice, the collagen and IFA are mixed by pressing between the two syringes rapidly for 10 minutes. Quality of the emulsification is tested after 10 minutes of mixing by dropping a small amount of mixture in water. A properly emulsified solution will remain as a discrete droplet and not disperse in the water. On day 7, rats are challenged with a second intradermal injection of 100 ug of collagen in 100 ul, 1 mg/ml, collagen in IFA solution prepared fresh. Body weight and ankle diameter measurements are recorded daily from day 7 through the end of the study. Ankle diameter was measure by a single researcher using a Fowler Digitrix 2 micrometer. Three measurements of each ankle were taken of the lateral dimension at the tarsus of lightly anesthetized rats. The reported ankle diameter measurement is the mean of the three measurements.
Arthritis was induced as described in four cohorts of 9-week-old female Lewis rats. Rats were randomly placed in treatment groups, balancing compound and dose groups across cohorts. […] Rats were dosed by tail vein injection on days 11 and 12 and euthanized on day 13 by CO2 asphyxiation. Immediately after cessation of respiratory movement, blood was collected by cardiac puncture, synovial fluid was collected from both knees, one hind limb was fixed in formalin and the alternate ankle was frozen on dry ice. Thymus, spleen, liver, and kidney weights were recorded.
CIA Response study design.
The aim of the study was to test the 4 conjugates with various linkers at two different doses in vivo in CIA rats to assess the following: ability to deliver sufficient dexamethasone to the joint to show functionality and potential therapeutic effect in the disease model.
CIA was induced in female Lewis rats (as described above, see EXAMPLE 21). Body weight and ankle joint diameters were measured on day 0 and then daily from day 7 until euthanasia. […] At euthanasia, synovial fluid was collected from both knees, one hind limb was fixed in formalin and the alternate ankle was frozen on dry ice. Thymus, spleen, liver, and kidney weights were recorded. Blood samples were submitted for CBC/Chemistry analysis, and the remaining plasma was frozen.

[2] = Systemic markers for glucocorticoid exposure in normal rats; format: in vivo; settings: normal female Lewis rats
Procedure: In order to evaluate markers of systemic dexamethasone exposure in normal rats, time points were selected to simulate drug administration for studies (e.g., dosing on days 10 and 11, euthanize on day 12 or dosing on days 11-14 and euthanize on day 14). […] Rats were euthanized 24 hours after the second dose, or 5 hours after the fourth dose. Body weight was measured daily. At euthanasia, liver, spleen, thymus, and kidney weights were recorded and blood was collected for CBC and serum chemistry analysis. To establish the CIA model, female Lewis rats were inoculated with an intradermal injection of bovine collagen II on day 0 and a challenge dose was administered on day 7. Ankle and knee joint diameters were measured daily. Rats were euthanized on day 10, day 12 and day 14 at which time liver, spleen, thymus, and kidney weights were recorded and blood was collected for complete blood count (CBC)/blood chemistry analysis.

CIA rats [3] = format: in vivo; settings: 0.2 mg/kg on study day 0 and day 1
Procedure: A study was conducted in CIA rats to address the following: 1) functionality and duration of effect for peptide(SEQ ID NO: 105)-carbamate-Dex at 0.2 mg/kg as compared to Dex alone at the same dose; 2) functionality and duration of effect for peptide(SEQ ID NO: 105)-DMA-Dex at 0.05 mg/kg as compared to Dex alone at the same dose; 3) systemic markers of Dex exposure in rats treated with each PDC and Dex at their respective doses (FIG. 16B-FIG. 16G).
CIA was induced as described above in EXAMPLE 21. Rats were enrolled in the study following onset of arthritis in at least one ankle and randomly assigned into one of five treatment groups (vehicle; peptide-carbamate 0.2 mg/kg; Dex 0.2 mg/kg; peptide-DMA conjugate 0.05 mg/kg; Dex 0.05 mg/kg) with 5 rats per group. Treatment was administered on study day 0 and study day 1 and rats were euthanized on study day 7. The primary read-out in this cohort was change in ankle diameter during and after treatment, as a measure of functionality and duration of effect. […] The primary read-out for this cohort was measures of systemic exposure to Dex which included thymus weight, spleen weight, total white blood cell counts, lymphocyte counts, and change in body weight.

[4] = IL-1β challenge rat model, dose-ranging study: CBC, organ weights, tolerability; format: in vivo, rats
Procedure: IL-6 was measured in knee lavage fluid using a Luminex assay and levels were normalized to total protein in the lavage fluid (FIG. 24). Assessment of the PD inflammatory marker IL-6 in the knee joints of rats challenged with IL-1β was performed. Terminal synovial fluid was collected from all animals and analyzed by Luminex 200 for IL-6 cytokine concentrations using EMD Milliplex MAP Rat Cytokine/Chemokine Magnetic Panel ([…]-65K). […] Doses are listed as nmol/kg The masses of these doses are given below in TABLE 16. Two hours and forty-five minutes (i.e., 2.75 hrs) after administration of the test agents, animals were gently heated and blood was drawn from the tail vein for CBC analysis. Animals were then anesthetized with inhaled isoflurane and injected with 30 ng of IL-1β into the right knee (except for no IL-1β group). Four hours after administration of IL-1β (seven hours after administration of test agent) the animals were euthanized. Blood was drawn for a second CBC analysis and the right knee was lavaged for detection of IL-6 in the lavage fluid using a Luminex assay. Thymus and spleen were harvested and their organ weights determined.
In the same animals for which IL-6 secretion was measured, CBC data (e.g., lymphocyte counts) were also analyzed (FIG. 25) at an early time-point, 2.75 hrs post administration of the test article (FIG. 25A), and at euthanasia 7 hrs post administration (FIG. 25B). All treatments were administered as described above for the measurement of IL-6 secretion.
All treatments and test articles were administered as described above, except for an additional treatment group that received 510 nmol/kg of the peptide-drug conjugate peptide(SEQ ID NO: 105)-DMA-dCIC.

IL-6 = settings: 30 or 3 μg, 4 h
Procedure: After 4 h, IL-6 levels in synovial fluid of the same knee were measured by Luminex and normalized to protein content of the knee lavage.

[5] = 1 mg/kg/day for 2 days and 4 days
[6] = 1 mg/kg/day for 2 days or 4 days, vs vehicle and CIA rats

**Q.** For Dexamethasone sodium phosphate [DexSP], which spleen weight (CIA rats [1]; 0.2 mg/kg and 0.5 mg/kg dose) is on record?
**A.** The spleen weight was “reduction”.

**Q.** What about the thymus weight (CIA rats [1]; 0.2 mg/kg and 0.5 mg/kg dose) of the same substance?
**A.** The thymus weight was “reduction”.

**Q.** And the total body weight (CIA rats [1]; 0.2 mg/kg and 0.5 mg/kg dose)?
**A.** Its total body weight is “reduction”.

**Q.** What about the “change in median ankle diameter between day 11 and day 13 as compared to vehicle” value (CIA rats [1]; 0.2 mg/kg dose) of the same substance?
**A.** The value was “did not reach statistical significance”.

**Q.** What about the “reduction in thymus weight as compared to vehicle” value (CIA rats [1]; 0.2 mg/kg dose groups) of the same substance?
**A.** The value was “statistically significant”.

**Q.** What about the other liver enzymes ([2]; 1 mg/kg/day) of the same substance?
**A.** The other liver enzymes was “no significant changes”.

**Q.** And the “red blood cell (RBC) count, hematocrit, neutrophil, monocyte or eosinophil counts” value ([2]; 1 mg/kg/day)?
**A.** The value was “no significant changes”.

**Q.** And the absolute lymphocyte count [2, 5]?
**A.** The absolute lymphocyte count was “decreased”.

**Q.** And the “total white blood cell (WBC) count” value [2, 5]?
**A.** The value was “decreased”.

**Q.** And the Body weight ([2]; 1 mg/kg/day for 2 days or 4 days)?
**A.** Its Body weight is “declined”.

**Q.** And the spleen weight [2, 6]?
**A.** The spleen weight was “significantly decreased”.

**Q.** What about the thymus weight [2, 6] of the same substance?
**A.** The thymus weight was “significantly decreased”.

**Q.** What about the “Nucleated RBCs” value ([2]; 4 doses of 1 mg/kg/day) of the same substance?
**A.** The value was “detected in four of the five rats”.

**Q.** What about the “ankle inflammation / ankle diameter as compared to vehicle” value (CIA rats [3]) of the same substance?
**A.** Its value is “highly effective in reducing ankle diameter to baseline levels”.

**Q.** What about the “monocytes (CBC)” value ([4]; 2.75 hours post-treatment) of the same substance?
**A.** Its value is “dose dependent decrease”.

**Q.** And the “Lymphocyte counts as compared to vehicle control” value ([4]; 2.75 hrs post administration, Dex both doses, dCIC IA or IV)?
**A.** The value was “substantial reduction in lymphocyte counts”.

**Q.** And the “Lymphocyte counts at euthanasia” value ([4]; 7 hours post administration, all dose levels)?
**A.** Its value is “lower at 7 hours as compared to 2.75 hours”.

**Q.** What about the “IL-6 secretion in synovial fluid” value (IL-6; administered IA (co-injected with IL-1b)) of the same substance?
**A.** The value was “no decrease”.

**Q.** What about the “IL-6 secretion in synovial fluid” value (IL-6; administered IV) of the same substance?
**A.** Its value is “some decrease”.
